Reference: US20220402872A1, “PHOTOPOLYMERIZABLE ANTIBACTERIAL MONOMER” (UNIVERSITA' DEGLI STUDI DI TRIESTE, priority 2019, published 2022)

Columns and labels:
Format in all cases: cell-based
E. coli (ATCC25922) = assay: Determination of the minimum inhibitory concentration (MIC); conditions: Escherichia coli
Procedure: (§1) A colony of bacterium taken from agar plate is inoculated in Brain Hearth Infusion medium (BHI) and grown overnight at 37° C. The next day, the bacteria are diluted in fresh medium containing the phenol red indicator, up to a density of 10^6 bacteria/mL.
(§2) A stock solution of 2 mg/mL of compound is prepared in BHI medium containing phenol red.
(§3) In a 96-well plate, the compound stock solution is diluted serially (the concentration is halved at each step) to obtain the following final concentrations after addition of the bacteria suspension: 1 mg/mL; 0.5 mg/mL; 0.25 mg/mL; 0.125 mg/mL; 0.065 mg/mL; 0.032 mg/mL; 0.016 mg/mL; 0.008 mg/mL; 0.004 mg/mL; 0.002 mg/mL; 0.001 mg/mL. A compound-free medium is used as a growth control. A volume of bacterial suspension equal to 0.5*10^6 bacteria/mL is added to each well containing the compound and the control. The dish is incubated at 37° C. for 24 hours. Bacterial growth in each well is detected by the phenol red, which turns from red to yellow following acidification of the medium induced by bacterial metabolism. The lowest concentration of the compound causing no evident color change corresponds to the MIC.
(§4) The compounds according to Examples 1, 3, 5, 6, and 7 were tested on bacterial strains different from S. mutans with the same methods described above, obtaining the MIC and MBC values reported in Table 2.

S. Mitis (ATCC 49456) = assay: as above; conditions: Streptococcus mitis, ATCC49456
Procedure: as §1, §2, §3, §4

S. Aureus (ATCC 25923) = assay: as above; conditions: Staphylococcus aureus, ATCC25923
Procedure: as §1, §2, §3, §4

S. Sanguis (ATCC 10556) = assay: as above
Procedure: as §1, §2, §3, §4

bacteria grown on agar = assay: Determination of bacterial inhibition - agar diffusion test of primer formulations; conditions: for zone of inhibition at 5 % strength: 5% by weight of compound; for zone of inhibition at 10 % strength: 10% by weight of compound
Source text: A test adapted from a commonly used method for determining the sensitivity of a bacterial strain to antibiotics in solution, known as Kirby-Bauer antibiotic testing or disc diffusion antibiotic sensitivity testing was used (Brown D F, Kothari D (1975), “Comparison of antibiotic discs from different sources”, J. Clin. Pathol. 28 (10): 779-83. Doi: 10.1136 /jcp.28.10.779). The test performed involves the use of discs imbued with a known concentration of the substance under examination that are placed on a layer of bacteria grown on agar. The diffusion of the bactericidal molecule from the disk into the agar causes the inhibition of bacterial growth in the area surrounding the disk itself where the molecule has spread with the formation of what are called zones of growth inhibition. The diameter of these inhibition zones (transparent circular regions in comparison to the bacterial film) is proportional to the antibacterial efficacy of the molecule to its concentration and to its diffusion ability in the medium.
The bactericidal properties of the compounds according to Examples 1, 3, 5, 6 and 7 were tested in various primer-type preparations, using the method “Bacterial inhibition determination-Agar diffusion test” described above. The disk soaked in the tested primer formulation without addition of compounds according to Examples 1, 3, 5, 6 and 7 was used as a negative reference.
For the tests, the following primer-type formulations were used, identified by the following codes: […]

S. mutans (ATCC 25175) [1] = assay: Determination of the minimum inhibitory concentration (MIC); conditions: Streptococcus mutans, ATCC25175; for MIC: against S. Mutans
Procedure: as §1, §2, §3
(§5) In order to test the antibacterial properties of the compounds prepared in Examples 1-8, on colonies of S. mutans (ATCC 25175), a bacterium commonly found in the human oral cavity, a test was set up to determine the minimum inhibitory concentration (MIC) and the minimum bactericidal concentration (MBC) according to the “Determination of minimum inhibitory concentration (MIC)” methods and “Determination of minimum bactericidal concentration (MBC)” described above.

S. mutans (ATCC 25175) [2] = assay: Determination of the minimum bactericidal concentration (MBC); conditions: Streptococcus mutans, ATCC25175; against S. Mutans
Procedure: A 20 mg/mL compound stock solution in BHI medium is prepared. In a 96-well plate, the compound solution is diluted serially (the concentration is halved at each step) to obtain the following final concentrations after addition of the bacteria suspension: 10 mg/mL; 5 mg/mL; 2.5 mg/mL; 1.25 mg/mL; 0.625 mg/mL; 0.31 mg/mL; 0.15 mg/mL; 0.08 mg/mL; 0.04 mg/mL; 0.02 mg/mL. Wells containing a mixture of penicillin and streptomycin antibiotics are used as a positive control. Compound-free medium is used as a growth control. A volume of bacterial suspension equal to 0.5*10^6 bacteria/mL is added to each well containing the compound and the controls. The dish is incubated at 37° C. for 24 hours. The lowest compound concentration at which no turbidity of the culture medium is evident is defined as MIC. For the calculation of MBC, aliquots equal to 50 μL are taken from the wells showing evident no turbidity of the medium and are plated on BHI agar plates for 48 hours. […] Bacterial suspensions taken from the positive control (growth medium only) and the negative control (growth medium with Ampicilin 100 μg/mL) are also seeded.
as §5

[3] = primer L1B, 1% by weight of compound
[4] = primer L3, 1% by weight of compound
[5] = primer PaA, 1% by weight of compound

| SMILES | MIC (E. coli (ATCC25922)) [µg/mL] | MIC (S. Mitis (ATCC 49456)) [µg/mL] | MIC (S. Aureus (ATCC 25923)) [µg/mL] | MIC (S. Sanguis (ATCC 10556)) [µg/mL] | zone of inhibition at 1 % strength (bacteria grown on agar; primer L1A, 1% by weight of compound) [mm] | zone of inhibition at 5 % strength (bacteria grown on agar; primer L1A) [mm] | zone of inhibition at 10 % strength (bacteria grown on agar; primer L1A) [mm] | zone of inhibition at 1 % strength (bacteria grown on agar; [3]) [mm] | zone of inhibition at 5 % strength (bacteria grown on agar; primer L1B) [mm] | zone of inhibition at 10 % strength (bacteria grown on agar; primer L1B) [mm] | zone of inhibition at 1 % strength (bacteria grown on agar; primer L1C, 1% by weight of compound) [mm] | zone of inhibition at 5 % strength (bacteria grown on agar; primer L1C) [mm] | zone of inhibition at 10 % strength (bacteria grown on agar; primer L1C) [mm] | MIC (S. mutans (ATCC 25175) [1]) [µg/mL] | MBC (S. mutans (ATCC 25175) [2]) [µg/mL] | zone of inhibition at 1 % strength (bacteria grown on agar; [4]) [mm] | zone of inhibition at 1 % strength (bacteria grown on agar; [5]) [mm] | MBC (S. mutans (ATCC 25175) [1]; against the analyzed bacteria strains) [µg/mL] |
| --- | --- | --- | --- | --- | --- | --- | --- | --- | --- | --- | --- | --- | --- | --- | --- | --- | --- | --- |
| C=C(C)C(=O)OCC[N+](C)(C)CCCCCCCCCCCC[N+](C)(C)CCOC(=O)C(=C)C.[Br-].[Br-] [Example 1] | 625 | 310 | 156 | 310 | 15 | 20 | 25 | 5 | 15 | 19 | 10 | 15 | 20 | 150 | 300 |  |  |  |
| C=C(C)C(=O)OCC[N+](CC)(CC)CCCCCCCCCCCC[N+](CC)(CC)CCOC(=O)C(=C)C.[Br-].[Br-] [Example 5] | 78 | 39 | 20 | 20 |  |  |  | 14 |  |  |  |  |  | 10 to 20 | 20 | 13 | 12 |  |
| C=C(C)C(=O)Nc1ccc([N+](C)(C)CCCCCCCCCCCC[N+](C)(C)c2ccc(NC(=O)C(C)=O)cc2)cc1.[Br-].[Br-] [Example 6] | 2 | 10 | 10 | 5 |  |  |  | 14 |  |  |  |  |  | 5 | 10 | 15 | 15 | 5 to 10 |
| C=C(C)C(=O)NCc1cc[n+](CCCCCCCCCCCC[n+]2ccc(CNC(=O)C(=C)C)cc2)cc1.[Br-].[Br-] [Example 7] | 2.5 | 20 | 2.5 | 10 |  |  |  | 17 |  |  |  |  |  | 2.5 | 2.5 | 14 | 13 |  |
